Measured values taken from patent publication US20260315564A1, “THE USE OF TP3 (THYMOPENTIN ANALOG) BY INCREASING THE ACTIVITY AND NUMBER OF T-CELLS INVOLVED IN THE DEFENSE MECHANISM OF THE IMMUNE SYSTEM OF MAMMALS, FOR THE PREVENTION OR TREATMENT OF DISEASES TO EXTEND THE AVERAGE LIFESPAN” (priority 2023, published 2026).
Marks after values point to notes of the source that are not given here.

System: peritoneal macrophages
Assay: Phagocytic function of peritoneal macrophages ex vivo in CFLP outbred mice (CY-immunosuppressed)
Excerpt: 6.2./Examination of the Effect on the Phagocytic Function of Peritoneal Macrophages CFLP Outbred in Mice
Macrophage phagocytosis ex vivo (X=yeast/100 cells)

O=P1(N(CCCl)CCCl)NCCCO1 (centres unmarked) [CY]
phagocytic activity of macrophages (CY immunosuppression, 1.0 mg/kg/sc (TP3), in words): significantly inhibited
macrophage phagocytosis ex vivo (CY p.o. alone, n = 15, untreated control 194.5): 111.5* yeast/100 cells
